# In patent US8222246B2, “Substituted isoxazoles” (Hoffmann-La Roche Inc., priority 2009, dated 2012):
# Target: T1, GABA A α5 (α5β3γ2) (Homo sapiens, UniProt P18507+P31644)
# T1 construct: expressed in transfected cells; host or cells: HEK293 (transiently transfected), membranes
# Experiment: [3H]flumazenil competition binding assay, human GABA A α5 receptors in HEK293 cells
# Settings: competition for [3H]flumazenil (0.5 nM); HEK293 cells expressing human (transiently transfected) receptors; means of two determinations; read-out: hKi GABA A α5
# Protocol: Membrane Preparation and Binding Assay
# The affinity of compounds at GABA A receptor subtypes was measured by competition for [3H]flumazenil (85 Ci/mmol; Roche) binding to HEK293 cells expressing rat (stably transfected) or human (transiently transfected) receptors of composition α1β3γ2, α2β3γ2, α3β3γ2 and α5β3γ2.
# Cell pellets were suspended in Krebs-tris buffer (4.8 mM KCl, 1.2 mM CaCl2, 1.2 mM MgCl2, 120 mM NaCl, 15 mM Tris; pH 7.5; binding assay buffer), homogenized by polytron for ca. 20 sec on ice and centrifuged for 60 min at 4° C. (50000 g; Sorvall, rotor: SM24=20000 rpm). The cell pellets were resuspended in Krebs-tris buffer and homogenized by polytron for ca. 15 sec on ice. Protein was measured (Bradford method, Bio-Rad) and aliquots of 1 mL were prepared and stored at −80° C.
# Radioligand binding assays were carried out in a volume of […] (96-well plates) which contained […] of cell membranes, [3H]flumazenil at a concentration of 1 nM for α1, α2, α3 subunits and 0.5 nM for α5 subunits and the test compound in the range of […]. Nonspecific binding was defined by 10^−5 M diazepam and typically represented less than 5% of the total binding. Assays were incubated to equilibrium for 1 hour at 4° C. and harvested onto GF/C uni-filters (Packard) by filtration using a Packard harvester and washing with ice-cold wash buffer (50 mM Tris; pH 7.5). After drying, filter-retained radioactivity was detected by liquid scintillation counting. Ki values were calculated using Excel-Fit (Microsoft) and are the means of two determinations.
# Representative test results, obtained by the above described assay measuring binding affinity to HEK293 cells expressing human (h) receptors, are shown in table 1 below.
row,Compound,Ki [nM]
1,"CC(C)NC(=O)c1ccc(OCc2c(-c3ccccc3)noc2CO)nc1 [Example 1, 6-(5-Hydroxymethyl-3-phenyl-isoxazol-4-ylmethoxy)-N-isopropyl-nicotinamide]",2.2
2,"O=C(NCCO)c1ccc(OCc2c(-c3ccccc3)noc2CO)nc1 [Example 2, N-(2-Hydroxy-ethyl)-6-(5-hydroxymethyl-3-phenyl-isoxazol-4-ylmethoxy)-nicotinamide]",1.6
3,"O=C(c1ccc(OCc2c(-c3ccc(F)cc3)noc2CO)nc1)N1CCS(=O)(=O)CC1 [Example 3, (1,1-Dioxo-1,6-thiomorpholin-4-yl)-{6-[3-(4-fluoro-phenyl)-5-hydroxymethyl-isoxazol-4-ylmethoxy]-pyridin-3-yl}-methanone]",8.6
4,"CC(NC(=O)c1ccc(OCc2c(-c3ccc(F)cc3)noc2CO)nc1)C(F)(F)F (stereo not drawn) [Example 11, 6-[3-(4-Fluoro-phenyl)-5-hydroxymethyl-isoxazol-4-ylmethoxy]-N-(2,2,2-trifluoro-1-methyl-ethyl)-nicotinamide]",1.4
5,"CC(C)(CO)NC(=O)c1ccc(OCc2c(-c3ccc(F)cc3)noc2CO)nc1 [Example 12, 6-[3-(4-Fluoro-phenyl)-5-hydroxymethyl-isoxazol-4-ylmethoxy]-N-(2-hydroxy-1,1-dimethyl-ethyl)-nicotinamide]",10.1
6,"O=C(NCC(F)(F)C(F)(F)F)c1ccc(OCc2c(-c3ccc(F)cc3)noc2CO)nc1 [Example 13, 6-[3-(4-Fluoro-phenyl)-5-hydroxymethyl-isoxazol-4-ylmethoxy]-N-(2,2,3,3,3-pentafluoro-propyl)-nicotinamide]",3.4
7,"CC[C@H](CO)NC(=O)c1ccc(OCc2c(-c3ccc(F)cc3)noc2CO)nc1 [Example 14, 6-[3-(4-Fluoro-phenyl)-5-hydroxymethyl-isoxazol-4-ylmethoxy]-N-((R)-1-hydroxymethyl-propyl)-nicotinamide]",3.5
8,"CC[C@@H](CO)NC(=O)c1ccc(OCc2c(-c3ccc(F)cc3)noc2CO)nc1 [Example 15, 6-[3-(4-Fluoro-phenyl)-5-hydroxymethyl-isoxazol-4-ylmethoxy]-N-((S)-1-hydroxymethyl-propyl)-nicotinamide]",0.6
9,"Cn1cc(NC(=O)c2ccc(OCc3c(-c4ccc(F)cc4)noc3CO)nc2)cn1 [Example 16, 6-[3-(4-Fluoro-phenyl)-5-hydroxymethyl-isoxazol-4-ylmethoxy]-N-(1-methyl-1H-pyrazol-4-yl)-nicotinamide]",0.9
10,"CC1(NC(=O)c2ccc(OCc3c(-c4ccc(F)cc4)noc3CO)nc2)COC1 [Example 17, 6-[3-(4-Fluoro-phenyl)-5-hydroxymethyl-isoxazol-4-ylmethoxy]-N-(3-methyl-oxetan-3-yl)-nicotinamide]",1.8
11,"O=C(c1ccc(OCc2c(-c3ccc(Cl)cc3)noc2CO)nc1)N1CCS(=O)(=O)CC1 [Example 18, {6-[3-(4-Chloro-phenyl)-5-hydroxymethyl-isoxazol-4-ylmethoxy]-pyridin-3-yl}-(1,1-dioxo-1-thiomorpholin-4-yl)-methanone]",3.5
12,"CN(C)C(=O)c1ccc(OCc2c(-c3ccc(Cl)cc3)noc2CO)nc1 [Example 22, 6-[3-(4-Chloro-phenyl)-5-hydroxymethyl-isoxazol-4-ylmethoxy]-N,N-dimethyl-nicotinamide]",43.4
13,"CC(C)(CO)NC(=O)c1ccc(OCc2c(-c3ccc(Cl)cc3)noc2CO)nc1 [Example 23, 6-[3-(4-Chloro-phenyl)-5-hydroxymethyl-isoxazol-4-ylmethoxy]-N-(2-hydroxy-1,1-dimethyl-ethyl)-nicotinamide]",3.9
14,"Cn1cc(NC(=O)c2ccc(OCc3c(-c4ccc(Cl)cc4)noc3CO)nc2)cn1 [Example 24, 6-[3-(4-Chloro-phenyl)-5-hydroxymethyl-isoxazol-4-ylmethoxy]-N-(1-methyl-1H-pyrazol-4-yl)-nicotinamide]",0.7
15,"C[C@H](NC(=O)c1ccc(OCc2c(-c3ccc(Cl)cc3)noc2CO)nc1)C(F)(F)F [Example 25, 6-[3-(4-Chloro-phenyl)-5-hydroxymethyl-isoxazol-4-ylmethoxy]-N-([S]-2,2,2-trifluoro-1-methyl-ethyl)-nicotinamide]",1.7

# The remaining lines, values ahead:
row,Ki [nM],Compound
1,1.6,"O=C(N[C@H]1CCC[C@@H]1O)c1ccc(OCc2c(-c3ccc(F)cc3)noc2CO)nc1 (racemic) [Example 10, 6-[3-(4-Fluoro-phenyl)-5-hydroxymethyl-isoxazol-4-ylmethoxy]-N-((1R,2R)-2-hydroxy-cyclopentyl)-nicotinamide or 6-[3-(4-Fluoro-phenyl)-5-hydroxymethyl-isoxazol-4-ylmethoxy]-N-((1S,2S)-2-hydroxy-cyclopentyl)-nicotinamide]"
2,1.2,"O=C(N[C@@H]1CCC[C@H]1O)c1ccc(OCc2c(-c3ccc(Cl)cc3)noc2CO)nc1 (single isomer, unassigned) [Example 26, 6-[3-(4-Chloro-phenyl)-5-hydroxymethyl-isoxazol-4-ylmethoxy]-N-((1S,2S)-2-hydroxy-cyclopentyl)-nicotinamide or 6-[3-(4-Chloro-phenyl)-5-hydroxymethyl-isoxazol-4-ylmethoxy]-N-((1R,2R)-2-hydroxy-cyclopentyl)-nicotinamide]"
3,0.6,"O=C(N[C@H]1CCC[C@@H]1O)c1ccc(OCc2c(-c3ccc(Cl)cc3)noc2CO)nc1 (single isomer, unassigned) [Example 27, 6-[3-(4-Chloro-phenyl)-5-hydroxymethyl-isoxazol-4-ylmethoxy]-N-([1R,2R]-2-hydroxy-cyclopentyl)-nicotinamide or 6-[3-(4-Chloro-phenyl)-5-hydroxymethyl-isoxazol-4-ylmethoxy]-N-([1S,2S]-2-hydroxy-cyclopentyl)-nicotinamide]"
4,1.1,"CC(C)NC(=O)c1ccc(OCc2c(-c3ccc(F)cc3)noc2CO)nc1 [Example 4, 6-[3-(4-Fluoro-phenyl)-5-hydroxymethyl-isoxazol-4-ylmethoxy]-N-isopropyl-nicotinamide]"
5,1.3,"O=C(NC1CCOCC1)c1ccc(OCc2c(-c3ccc(F)cc3)noc2CO)nc1 [Example 5, 6-[3-(4-Fluoro-phenyl)-5-hydroxymethyl-isoxazol-4-ylmethoxy]-N-(tetrahydro-pyran-4-yl)-nicotinamide]"
6,1.7,"O=C(NCC1CC1)c1ccc(OCc2c(-c3ccc(F)cc3)noc2CO)nc1 [Example 6, N-Cyclopropylmethyl-6-[3-(4-fluoro-phenyl)-5-hydroxymethyl-isoxazol-4-ylmethoxy]-nicotinamide]"
7,1.3,"O=C(NCC(F)(F)F)c1ccc(OCc2c(-c3ccc(F)cc3)noc2CO)nc1 [Example 7, 6-[3-(4-Fluoro-phenyl)-5-hydroxymethyl-isoxazol-4-ylmethoxy]-N-(2,2,2-trifluoro-ethyl)-nicotinamide]"
8,1.7,"O=C(NC1CC1)c1ccc(OCc2c(-c3ccc(F)cc3)noc2CO)nc1 [Example 8, N-Cyclopropyl-6-[3-(4-fluoro-phenyl)-5-hydroxymethyl-isoxazol-4-ylmethoxy]-nicotinamide]"
9,4.1,"COCCNC(=O)c1ccc(OCc2c(-c3ccc(F)cc3)noc2CO)nc1 [Example 9, 6-[3-(4-Fluoro-phenyl)-5-hydroxymethyl-isoxazol-4-ylmethoxy]-N-(2-methoxy-ethyl)-nicotinamide]"
10,0.4,"CC(C)NC(=O)c1ccc(OCc2c(-c3ccc(Cl)cc3)noc2CO)nc1 [Example 19, 6-[3-(4-Chloro-phenyl)-5-hydroxymethyl-isoxazol-4-ylmethoxy]-N-isopropyl-nicotinamide]"
11,1,"O=C(NC1CC1)c1ccc(OCc2c(-c3ccc(Cl)cc3)noc2CO)nc1 [Example 20, 6-[3-(4-Chloro-phenyl)-5-hydroxymethyl-isoxazol-4-ylmethoxy]-N-cyclopropyl-nicotinamide]"
12,2,"O=C(NCC(F)(F)F)c1ccc(OCc2c(-c3ccc(Cl)cc3)noc2CO)nc1 [Example 21, 6-[3-(4-Chloro-phenyl)-5-hydroxymethyl-isoxazol-4-ylmethoxy]-N-(2,2,2-trifluoro-ethyl)-nicotinamide]"
13,1.5,"CC(C)NC(=O)c1ccc(OCc2c(-c3ccc(F)c(F)c3)noc2CO)nc1 [Example 28, 6-[3-(3,4-Difluoro-phenyl)-5-hydroxymethyl-isoxazol-4-ylmethoxy]-N-isopropyl-nicotinamide]"
14,2,"O=C(NC1CCOCC1)c1ccc(OCc2c(-c3ccc(F)c(F)c3)noc2CO)nc1 [Example 29, 6-[3-(3,4-Difluoro-phenyl)-5-hydroxymethyl-isoxazol-4-ylmethoxy]-N-(tetrahydro-pyran-4-yl)-nicotinamide]"
15,4,"O=C(NCC1CC1)c1ccc(OCc2c(-c3ccc(F)c(F)c3)noc2CO)nc1 [Example 30, N-Cyclopropylmethyl-6-[3-(3,4-difluoro-phenyl)-5-hydroxymethyl-isoxazol-4-ylmethoxy]-nicotinamide]"
